Here are results for nine molecules from ChEMBL document CHEMBL6114972, “Proteolysis targeting chimera of BI-2536 induces potent dual degradation of PLK1 and BET proteins” (Bioorg Med Chem, 2025).

Active and inactive are the calls of the source. The rule behind the calls is not given here. Bounds are passed on as bounds.

Assay [1] has as its target T1, Protein cereblon/Serine/threonine-protein kinase PLK1 (Homo sapiens, UniProt P53350+Q96SW2). The assay can be described thus: Protac activity at CRBN/PLK1 in human 22Rv1 cells assessed as PLK1 degradation at 10 nM measured after 36 hrs by Western blot analysis. It is filed as cell-based.
Assay [2] concerns the target T2, Protein cereblon/Bromodomain-containing protein 4 (Homo sapiens, UniProt O60885+Q96SW2). The assay can be described thus: Protac activity at CRBN/BRD4 in human HeLa cells assessed as BRD4 degradation at 500 nM measured after 12 hrs by Western blot analysis. It is filed as cell-based. (In general: In western blotting, separated proteins are transferred to a membrane and probed.)

The test system of another assay is K562. The assay can be described thus: Cytotoxicity against human K562 cells assessed as reduction in cell viability measured after 3 days by CCK-8 assay. It is filed as functional, cell-based. As to conditions: K562, 72 h. A general note: Formazan colour is commonly taken as a measure of viable cells.
A further assay deals with CWR22R. The assay can be described thus: Cytotoxicity against human 22Rv1 cells assessed as reduction in cell viability measured after 3 days by CCK-8 assay. Type of assay: functional, cell-based. The settings on record: 22Rv1, 72 h.
Assay [3] has as its system HeLa. The experiment in a line: Cytotoxicity against human HeLa cells assessed as reduction in cell viability measured after 3 days by CCK-8 assay. It is filed as functional, cell-based. The settings on record: 72 h.
The target in assay [4] is T1, Protein cereblon/Serine/threonine-protein kinase PLK1. The assay can be described thus: Protac activity at CRBN/PLK1 in human HeLa cells assessed as PLK1 degradation at 500 nM measured after 12 hrs by Western blot analysis. Type of assay: cell-based.
The test system of the next assay is MDA-MB-231. The assay can be described thus: Cytotoxicity against human MDA-MB-231 cells assessed as reduction in cell viability measured after 3 days by CCK-8 assay. It is filed as functional, cell-based. The settings on record: MDA-MB-231, 72 h.
Assay [5] has as its target T2, Protein cereblon/Bromodomain-containing protein 4. The assay can be described thus: Protac activity at CRBN/BRD4 in human HeLa cells assessed as BRD4 degradation at 20 nM measured after 24 hrs by Western blot analysis. It is filed as cell-based.
The subject of assay [6] is HeLa. The experiment in a line: Induction of degradation of BRD4 in human HeLa cells at 500 nM measured after 12 hrs by Western blot analysis. Type of assay: cell-based.
The subject of assay [7] is HeLa. The experiment in a line: Induction of degradation of PLK1 in human HeLa cells at 500 nM measured after 12 hrs by Western blot analysis. Type of assay: cell-based.
For assay [8], the target named is von Hippel-Lindau disease tumor suppressor/Serine/threonine-protein kinase PLK1 (Homo sapiens) (UniProt P53350+P40337). The assay can be described thus: Protac activity at VHL/PLK1 in human HeLa cells assessed as PLK1 degradation at 500 nM measured after 12 hrs by Western blot analysis. It is filed as cell-based.
von Hippel-Lindau disease tumor suppressor/Serine/threonine-protein kinase PLK1 (Homo sapiens), sequence (P40337 whole entry, looked up): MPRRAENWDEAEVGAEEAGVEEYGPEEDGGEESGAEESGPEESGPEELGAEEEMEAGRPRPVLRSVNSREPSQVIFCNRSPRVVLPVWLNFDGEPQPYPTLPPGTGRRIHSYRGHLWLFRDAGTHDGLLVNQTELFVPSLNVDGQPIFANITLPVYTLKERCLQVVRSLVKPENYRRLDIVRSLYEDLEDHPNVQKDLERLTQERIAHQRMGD
von Hippel-Lindau disease tumor suppressor/Serine/threonine-protein kinase PLK1 (Homo sapiens), sequence (P53350 whole entry, looked up): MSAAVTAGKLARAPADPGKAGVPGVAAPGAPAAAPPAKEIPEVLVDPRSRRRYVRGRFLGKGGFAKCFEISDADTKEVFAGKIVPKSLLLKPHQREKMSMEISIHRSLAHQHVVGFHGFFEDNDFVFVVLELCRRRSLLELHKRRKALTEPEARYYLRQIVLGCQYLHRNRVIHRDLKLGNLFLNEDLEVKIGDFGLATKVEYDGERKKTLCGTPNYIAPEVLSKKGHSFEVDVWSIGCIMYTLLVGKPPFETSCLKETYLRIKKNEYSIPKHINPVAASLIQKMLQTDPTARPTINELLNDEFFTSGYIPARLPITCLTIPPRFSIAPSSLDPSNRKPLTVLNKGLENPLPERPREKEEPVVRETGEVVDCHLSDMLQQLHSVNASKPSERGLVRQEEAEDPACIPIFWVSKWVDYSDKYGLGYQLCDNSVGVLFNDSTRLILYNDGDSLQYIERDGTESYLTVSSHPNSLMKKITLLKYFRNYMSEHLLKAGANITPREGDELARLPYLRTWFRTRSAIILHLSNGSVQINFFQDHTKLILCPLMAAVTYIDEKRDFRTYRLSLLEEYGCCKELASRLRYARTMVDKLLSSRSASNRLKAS
The target in assay [9] is von Hippel-Lindau disease tumor suppressor/Bromodomain-containing protein 4 (Homo sapiens) (UniProt O60885+P40337). The assay can be described thus: Protac activity at VHL/BRD4 in human HeLa cells assessed as BRD4 degradation at 500 nM measured after 12 hrs by Western blot analysis. Type of assay: cell-based.
von Hippel-Lindau disease tumor suppressor/Bromodomain-containing protein 4 (Homo sapiens), sequence (P40337 whole entry, looked up, other chains not shown): as the sequence (P40337 whole entry, looked up) above
In assay [10] the target is T1, Protein cereblon/Serine/threonine-protein kinase PLK1. The experiment in a line: Protac activity at CRBN/PLK1 in human 22Rv1 cells assessed as PLK1 degradation at 5 to 10 nM measured after 36 hrs by Western blot analysis. Type of assay: cell-based. The settings on record: dose 5-10 nM.

T2 sequence (Q96SW2 whole entry, looked up, other chains not shown): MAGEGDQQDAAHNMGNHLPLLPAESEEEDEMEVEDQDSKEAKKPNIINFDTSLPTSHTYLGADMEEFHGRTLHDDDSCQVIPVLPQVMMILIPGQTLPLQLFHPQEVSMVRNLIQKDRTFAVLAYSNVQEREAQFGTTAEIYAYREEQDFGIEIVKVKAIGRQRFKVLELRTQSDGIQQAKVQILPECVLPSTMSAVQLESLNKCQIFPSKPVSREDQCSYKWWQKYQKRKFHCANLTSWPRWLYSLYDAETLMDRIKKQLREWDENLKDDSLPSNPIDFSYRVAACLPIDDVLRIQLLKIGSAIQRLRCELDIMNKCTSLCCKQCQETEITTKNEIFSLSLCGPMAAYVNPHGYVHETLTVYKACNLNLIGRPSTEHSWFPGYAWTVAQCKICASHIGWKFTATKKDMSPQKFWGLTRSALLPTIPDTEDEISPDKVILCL
T1 sequence (P53350 2-603 limits assumed): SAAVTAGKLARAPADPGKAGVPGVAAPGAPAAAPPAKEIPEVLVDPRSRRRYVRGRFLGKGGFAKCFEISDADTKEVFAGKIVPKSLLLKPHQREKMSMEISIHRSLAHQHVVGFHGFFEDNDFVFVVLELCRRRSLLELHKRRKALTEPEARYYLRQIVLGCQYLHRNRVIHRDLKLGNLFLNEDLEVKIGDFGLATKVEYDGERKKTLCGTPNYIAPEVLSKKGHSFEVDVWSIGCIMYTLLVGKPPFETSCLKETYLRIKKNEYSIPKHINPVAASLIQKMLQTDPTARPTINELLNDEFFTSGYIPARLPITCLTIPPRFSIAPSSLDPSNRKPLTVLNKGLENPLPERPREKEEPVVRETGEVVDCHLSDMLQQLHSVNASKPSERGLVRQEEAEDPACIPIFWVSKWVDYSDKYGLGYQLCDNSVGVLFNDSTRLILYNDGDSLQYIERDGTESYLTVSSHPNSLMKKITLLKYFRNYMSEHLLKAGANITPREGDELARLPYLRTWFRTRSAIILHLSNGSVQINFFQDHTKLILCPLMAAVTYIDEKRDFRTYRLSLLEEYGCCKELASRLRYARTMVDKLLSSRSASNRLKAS
T1 sequence (Q96SW2 whole entry partner): as the sequence (Q96SW2 whole entry, looked up, other chains not shown) above

Take `Cc1ncsc1-c1ccc(CNC(=O)[C@@H]2C[C@@H](O)CN2C(=O)[C@@H](NC(=O)CCCCCCCCCCNC(=O)c2cc3c(cc2CS(C)(=O)=O)-c2cn(C)c(=O)c4[nH]cc(c24)CN3c2ncc(F)cc2F)C(C)(C)C)cc1`: the result in assay [1] was inactive.
On to `CC[C@@H]1C(=O)N(C)c2cnc(Nc3ccc(C(=O)NC4CCN(CCCCCCCCCC(=O)Nc5cccc6c5C(=O)N(C5CCC(=O)NC5=O)C6=O)CC4)cc3OC)nc2N1C1CCCC1` (some centres not stated), for which the Activity turned out to be 93% in [2] and 7% in [4]. Further, the IC50 (as a rule, the midpoint of a concentration-inhibition curve) in the assay with K562 stood at 133 nM; with CWR22R, 63 nM; in the assay with HeLa [3] it was 125 nM; in the assay on MDA-MB-231, 527 nM. Moreover, the result in assay [5] was Active.
As for `CC[C@@H]1C(=O)N(C)c2cnc(Nc3ccc(C(=O)NC4CCN(C)CC4)cc3OC)nc2N1C1CCCC1`, the Activity in the assay with HeLa [6] and with HeLa [7] was 0% each time.
For the molecule `CC[C@@H]1C(=O)N(C)c2cnc(Nc3ccc(C(=O)NC4CCN(CCCCCCC(=O)N[C@H](C(=O)N5C[C@H](O)C[C@H]5C(=O)NCc5ccc(-c6scnc6C)cc5)C(C)(C)C)CC4)cc3OC)nc2N1C1CCCC1`, the IC50 was over 1000 nM in the assay on K562, over 1000 nM in the assay on CWR22R, 193 nM with HeLa [3] and over 1000 nM in the assay on MDA-MB-231. For the same molecule, the values for the Activity in [8] and in [9] were 0% and 10%, respectively.
Take `CC[C@@H]1C(=O)N(C)c2cnc(Nc3ccc(C(=O)NC4CCN(CCCCCC(=O)N[C@H](C(=O)N5C[C@H](O)C[C@H]5C(=O)NCc5ccc(-c6scnc6C)cc5)C(C)(C)C)CC4)cc3OC)nc2N1C1CCCC1`: the IC50 in the assay on K562 is over 1000 nM; with CWR22R, over 1000 nM; in the assay on HeLa [3] it was 398 nM; in the assay with MDA-MB-231 it was over 1000 nM. For the same molecule, the Activity in [8] came out at 0.3%; in assay [9], 7%.
Take `CC[C@@H]1C(=O)N(C)c2cnc(Nc3ccc(C(=O)NC4CCN(CCCCCCCC(=O)N[C@H](C(=O)N5C[C@H](O)C[C@H]5C(=O)NCc5ccc(-c6scnc6C)cc5)C(C)(C)C)CC4)cc3OC)nc2N1C1CCCC1`: the IC50 in the assay with K562 was 527 nM; with CWR22R, over 1000 nM; in the assay on HeLa [3], 158 nM; in the assay with MDA-MB-231, over 1000 nM. Also, the Activity in assay [8] came out at 6%; in assay [9], 22%.
For the molecule `CC[C@@H]1C(=O)N(C)c2cnc(Nc3ccc(C(=O)NC4CCN(CCCCCCCCCC(=O)N[C@H](C(=O)N5C[C@H](O)C[C@H]5C(=O)NCc5ccc(-c6scnc6C)cc5)C(C)(C)C)CC4)cc3OC)nc2N1C1CCCC1`, the IC50 worked out at 66 nM in the assay with K562, 225 nM in the assay with CWR22R, 52 nM in the assay on HeLa [3] and 928 nM in the assay on MDA-MB-231. In addition, the Activity came to 8% in assay [8] and 50% in assay [9].
In the case of `CC[C@@H]1C(=O)N(C)c2cnc(Nc3ccc(C(=O)NC4CCN(CCCCCCC(=O)Nc5cccc6c5C(=O)N(C5CCC(=O)NC5=O)C6=O)CC4)cc3OC)nc2N1C1CCCC1` (some centres not stated), the Activity is 94% in [2] and 18% in [4]. Further, the IC50 with K562 came to 89 nM; in the assay with CWR22R, 48 nM; in the assay on HeLa [3], 54 nM; with MDA-MB-231, 489 nM. Moreover, in assay [5], the outcome was Active.
Take `Cc1ncsc1-c1ccc([C@H](C)NC(=O)[C@@H]2C[C@@H](O)CN2C(=O)[C@@H](NC(=O)COCCCOCCNC(=O)C[C@@H]2N=C(c3ccc(Cl)cc3)c3c(sc(C)c3C)-n3c(C)nnc32)C(C)(C)C)cc1`: in assay [10], the result was inactive.
